{
  "source": "ChEMBL document CHEMBL4808169",
  "about": "“Discovery of Potent and Fast-Acting Antimalarial Bis-1,2,4-triazines” (J Med Chem, 2021)",
  "key": {"Plasmodium falciparum [1]": {"tested_on": "Plasmodium falciparum", "experiment": "Antiplasmodial activity against Plasmodium falciparum NF54 by 3H-incorporation growth inhibition assay", "assay_type": "functional, organism-based"}, "[2]": {"experiment": "Clearance in ABT-treated Sprague-Dawley rat blood at 3 mg/kg, iv by LC-MS analysis", "assay_type": "ADME, organism-based"}, "[3]": {"experiment": "Apparent oral availability in Sprague-Dawley rat at 10 mg/kg measured up to 24 hrs by LC-MS analysis", "assay_type": "ADME, organism-based", "details": "in vivo, read-out: Fapp"}, "[4]": {"experiment": "Clearance in Sprague-Dawley rat plasma at 3 mg/kg, iv measured up to 24 hrs by LC-MS analysis", "assay_type": "ADME, organism-based"}, "[5]": {"experiment": "Drug metabolism in human liver microsomes assessed as formation of cleavage product M-69 by LC-MS/MS(CID) analysis", "assay_type": "ADME, Microsome"}, "[6]": {"experiment": "Volume of distribution at steady state in Sprague-Dawley rat plasma at 3 mg/kg, iv measured up to 24 hrs by LC-MS analysis", "assay_type": "ADME, organism-based", "details": "read-out: Vdss"}, "[7]": {"experiment": "Half life in mouse liver microsomes in presence of NADPH by UPLC-MS analysis", "assay_type": "ADME, Microsome"}, "[8]": {"experiment": "Drug metabolism in Sprague-Dawley rat urine assessed as oxygenated metabolite N-methyl-2-(3'-propoxy-5,5'-bi(1,2,4-triazin)-3-yloxy)ethanamine oxide formation at 10 mg/kg, po by high-resolution mass spectrometry", "assay_type": "ADME, organism-based", "details": "in vivo"}, "[9]": {"experiment": "Drug metabolism in mouse hepatocytes assessed as N-methyl-2-(3'-propoxy-5,5'-bi(1,2,4-triazin)-3-yloxy)ethanamine formation by LC-MS/MS(CID) analysis", "assay_type": "ADME, cell-based, Hepatocyte"}, "[10]": {"experiment": "Drug metabolism in human hepatocytes assessed as glucuronides/sulfates metabolite formation by LC-MS/MS(CID) analysis", "assay_type": "ADME, cell-based, Hepatocyte"}, "[11]": {"experiment": "Drug metabolism in mouse liver microsomes assessed as formation of cleavage product M-69 in presence of NADPH by LC-MS/MS(CID) analysis", "assay_type": "ADME, Microsome"}, "Plasmodium falciparum [12]": {"tested_on": "Plasmodium falciparum", "experiment": "Bactericidal activity against Plasmodium falciparum 3D7A at 10 times IC50", "assay_type": "functional, organism-based"}, "[13]": {"experiment": "Drug metabolism in rat liver microsomes assessed as oxygenated metabolite N-methyl-2-(3'-propoxy-5,5'-bi(1,2,4-triazin)-3-yloxy)ethanamine oxide formation by LC-MS/MS(CID) analysis", "assay_type": "ADME, Microsome"}, "[14]": {"experiment": "Drug metabolism in Sprague-Dawley rat feces assessed as M-32 metabolite formation at 10 mg/kg, po by high-resolution mass spectrometry", "assay_type": "ADME, organism-based", "details": "in vivo"}, "[15]": {"experiment": "Drug metabolism in mouse hepatocytes assessed as oxygenated metabolite M+16(2) formation by LC-MS/MS(CID) analysis", "assay_type": "ADME, cell-based, Hepatocyte"}, "[16]": {"experiment": "Intrinsic clearance in rat hepatocytes assessed per million cells by UPLC-MS analysis", "assay_type": "ADME, cell-based, Hepatocyte", "details": "read-out: CLH"}, "[17]": {"experiment": "Apparent permeability across basolateral side to apical side in human Caco2 cells measured over 120 mins by LC-MS analysis", "assay_type": "ADME, cell-based", "details": "Caco-2"}, "[18]": {"experiment": "Drug metabolism in Sprague-Dawley rat urine assessed as M-32 metabolite formation at 10 mg/kg, po by high-resolution mass spectrometry", "assay_type": "ADME, organism-based", "details": "in vivo"}, "[19]": {"experiment": "Drug metabolism in mouse liver microsomes assessed as oxygenated metabolite M+16(2) formation by LC-MS/MS(CID) analysis", "assay_type": "ADME, Microsome"}, "[20]": {"experiment": "Drug concentration in blood of NOD-SCID 1L2Rgamma mouse infected with Plasmodium falciparum 3D70087/N9 at 50 mg/kg, po measured at 24 hrs by LC-MS/MS analysis", "assay_type": "ADME, organism-based", "details": "in vivo"}, "Plasmodium berghei": {"tested_on": "Plasmodium berghei", "experiment": "Antiplasmodial activity against Plasmodium berghei ANKA infected in po dosed Swiss mouse administered at 2 hrs post infection and measured on day 4 by Peter's 4-day test", "assay_type": "functional"}, "Plasmodium falciparum [21]": {"tested_on": "Plasmodium falciparum", "experiment": "microbe, parasite or virus in culture", "details": "3D7, 72 h", "description": "Antimalarial activity against Plasmodium falciparum 3D7 infected in human red blood cells after 72 hrs by DAPI-staining based assay"}, "[22]": {"experiment": "Drug metabolism in Sprague-Dawley rat feces assessed as N-methyl-2-(3'-propoxy-5,5'-bi(1,2,4-triazin)-3-yloxy)ethanamine formation at 3 mg/kg, iv by high-resolution mass spectrometry", "assay_type": "ADME, organism-based", "details": "in vivo"}, "[23]": {"experiment": "Drug metabolism in Sprague-Dawley rat feces assessed as oxygenated metabolite M+16(2) formation at 3 mg/kg, iv by high-resolution mass spectrometry", "assay_type": "ADME, organism-based", "details": "in vivo"}, "[24]": {"experiment": "Drug metabolism in Sprague-Dawley rat feces assessed as N-methyl-2-(3'-propoxy-5,5'-bi(1,2,4-triazin)-3-yloxy)ethanamine formation at 10 mg/kg, po by high-resolution mass spectrometry", "assay_type": "ADME, organism-based", "details": "in vivo"}, "[25]": {"experiment": "Drug metabolism in Sprague-Dawley rat feces assessed as oxygenated metabolite N-methyl-2-(3'-propoxy-5,5'-bi(1,2,4-triazin)-3-yloxy)ethanamine oxide formation at 3 mg/kg, iv by high-resolution mass spectrometry", "assay_type": "ADME, organism-based", "details": "in vivo"}, "[26]": {"experiment": "AUC (0 to infinity) in Swiss mouse plasma at 2.8 mg/kg, po measured up to 24 hrs by LC-MS analysis"}, "[27]": {"experiment": "Drug metabolism in Sprague-Dawley rat urine assessed as oxygenated metabolite M+16(1) formation at 10 mg/kg, po by high-resolution mass spectrometry", "assay_type": "ADME, organism-based", "details": "in vivo"}, "[28]": {"experiment": "Drug metabolism in human hepatocytes assessed as 3'-propoxy-5,5'-bi(1,2,4-triazin)-3-ol formation by LC-MS/MS(CID) analysis", "assay_type": "ADME, cell-based, Hepatocyte"}, "[29]": {"experiment": "Drug recovery in bile cannulated Sprague-Dawley rat bile at 3 mg/kg, iv measured up to 4 hrs by LC-MS analysis", "assay_type": "ADME, organism-based", "details": "read-out: Drug recovery"}, "[30]": {"experiment": "Cmax in Swiss mouse plasma at 27 mg/kg, po measured up to 24 hrs by LC-MS analysis", "assay_type": "ADME, organism-based", "parameters": "route oral, dose 27 mg/kg, time <=24"}, "[31]": {"experiment": "Drug metabolism in human liver microsomes assessed as formation of cleavage product M-69 in presence of NADPH by LC-MS/MS(CID) analysis", "assay_type": "ADME, Microsome"}, "[32]": {"experiment": "Drug metabolism in Sprague-Dawley rat urine assessed as oxygenated metabolite M+16(1) formation at 3 mg/kg, iv by high-resolution mass spectrometry", "assay_type": "ADME, organism-based", "details": "in vivo"}, "[33]": {"experiment": "Tmax in Sprague-Dawley rat plasma at 10 mg/kg, po administered via gavage measured up to 24 hrs by LC-MS analysis", "assay_type": "ADME, organism-based"}, "[34]": {"experiment": "Kinetic solubility of compound at pH 6.5 by nephelometry", "assay_type": "physicochemical", "details": "buffer, read-out: Kinetic_solubility"}, "[35]": {"experiment": "Drug metabolism in Sprague-Dawley rat feces assessed as M-32 metabolite formation at 3 mg/kg, iv by high-resolution mass spectrometry", "assay_type": "ADME, organism-based", "details": "in vivo"}, "[36]": {"experiment": "Toxicity in Swiss mouse assessed as loss of mobility at 32 mg/kg/day administered for 4 days", "assay_type": "organism-based", "details": "in vivo, 96 h, time 4 day"}, "[37]": {"experiment": "Drug metabolism in human liver microsomes assessed as oxygenated metabolite M+16(1) formation by LC-MS/MS(CID) analysis", "assay_type": "ADME, Microsome"}, "[38]": {"experiment": "Volume of distribution at steady state in Swiss mouse at 2.7 mg/kg, iv measured up to 24 hrs by LC-MS analysis", "assay_type": "ADME, organism-based", "details": "in vivo, read-out: Vdss"}, "[39]": {"experiment": "Drug metabolism in human liver microsomes assessed as 3'-propoxy-5,5'-bi(1,2,4-triazin)-3-ol formation by LC-MS/MS(CID) analysis", "assay_type": "ADME, Microsome"}, "[40]": {"experiment": "Half life in human liver microsomes in presence of NADPH by UPLC-MS analysis", "assay_type": "ADME, Microsome"}, "[41]": {"experiment": "Oral bioavailability in Swiss mouse at 27 mg/kg measured up to 24 hrs", "assay_type": "ADME, organism-based", "details": "in vivo"}},
  "note": "Calls of active or inactive are those of the source. The calls are words filed in the database; no cut-off is given here.",
  "data": [
    {"smiles": "CCCOc1nncc(-c2cnnc(OCCN(C)C)n2)n1", "values": [
      {"measurement": "IC50", "setting": "Plasmodium falciparum [1]", "value": 21, "unit": "nM"},
      {"measurement": "clearance", "setting": "[2]", "value": 232, "unit": "mL/min/kg"},
      {"measurement": "bioavailability", "setting": "[3]", "value": 5, "unit": "%"},
      {"measurement": "clearance", "setting": "[4]", "value": 249, "unit": "mL/min/kg"},
      {"measurement": "Drug metabolism", "setting": "[5]", "value": "Metabolite_Detected"},
      {"measurement": "Vd", "setting": "[6]", "value": 2.8, "unit": "L/kg"},
      {"measurement": "half-life", "setting": "[7]", "value": 0.7, "unit": "h"},
      {"measurement": "Drug metabolism", "setting": "[8]", "value": "Metabolite_Detected"},
      {"measurement": "Drug metabolism", "setting": "[9]", "value": "Metabolite_Detected"},
      {"measurement": "Drug metabolism", "setting": "[10]", "value": "Metabolite_Notdetected"},
      {"measurement": "Drug metabolism", "setting": "[11]", "value": "Metabolite_Detected"},
      {"measurement": "Activity", "setting": "Plasmodium falciparum [12]", "value": "Active"},
      {"measurement": "Drug metabolism", "setting": "[13]", "value": "Metabolite_Detected"},
      {"measurement": "Drug metabolism", "setting": "[14]", "value": "Metabolite_Detected"},
      {"measurement": "Drug metabolism", "setting": "[15]", "value": "Metabolite_Detected"},
      {"measurement": "hepatocyte CLint", "setting": "[16]", "value": 10, "unit": "µL/min/1e6 cells"},
      {"measurement": "Papp B→A at 2 h", "setting": "[17]", "value": 46, "unit": "×10⁻⁶ cm/s"},
      {"measurement": "Drug metabolism", "setting": "[18]", "value": "Metabolite_Detected"},
      {"measurement": "Drug metabolism", "setting": "[19]", "value": "Metabolite_Detected"},
      {"measurement": "Drug uptake", "setting": "[20]", "value": "< 1e-05", "unit": "mg/mL"},
      {"measurement": "ED50", "setting": "Plasmodium berghei", "value": 1.85, "unit": "mg/kg/day"},
      {"measurement": "ED90", "setting": "Plasmodium berghei", "value": 4.1, "unit": "mg/kg/day"},
      {"measurement": "IC50", "setting": "Plasmodium falciparum [21]", "value": 31, "unit": "nM"},
      {"measurement": "Drug metabolism", "setting": "[22]", "value": "Metabolite_Detected"},
      {"measurement": "Drug metabolism", "setting": "[23]", "value": "Metabolite_Detected"},
      {"measurement": "Drug metabolism", "setting": "[24]", "value": "Metabolite_Detected"},
      {"measurement": "Drug metabolism", "setting": "[25]", "value": "Metabolite_Detected"},
      {"measurement": "AUC(0-inf)", "setting": "[26]", "value": 0.038, "unit": "µM·h"},
      {"measurement": "Drug metabolism", "setting": "[27]", "value": "Metabolite_Detected"},
      {"measurement": "Drug metabolism", "setting": "[28]", "value": "Metabolite_Notdetected"},
      {"measurement": "dose excreted at 4 h", "setting": "[29]", "value": 0.1, "unit": "%"},
      {"measurement": "Cmax", "setting": "[30]", "value": 82, "unit": "nM"},
      {"measurement": "Drug metabolism", "setting": "[31]", "value": "Metabolite_Detected"},
      {"measurement": "Drug metabolism", "setting": "[32]", "value": "Metabolite_Detected"},
      {"measurement": "Tmax", "setting": "[33]", "value": 1.3, "unit": "h"},
      {"measurement": "solubility kinetic", "setting": "[34]", "value": "> 100", "unit": "µg/mL"},
      {"measurement": "Drug metabolism", "setting": "[35]", "value": "Metabolite_Detected"},
      {"measurement": "Activity", "setting": "[36]", "value": "Non-Toxic"},
      {"measurement": "Drug metabolism", "setting": "[37]", "value": "Metabolite_Detected"},
      {"measurement": "Vd", "setting": "[38]", "value": 3.4, "unit": "L/kg"},
      {"measurement": "Drug metabolism", "setting": "[39]", "value": "Metabolite_Notdetected"},
      {"measurement": "half-life", "setting": "[40]", "value": 3.82, "unit": "h"},
      {"measurement": "bioavailability", "setting": "[41]", "value": 12, "unit": "%"}
    ]}
  ]
}
